Columns and labels:
[1] = tested on: HPAC (homozygous mutant KRAS G12D human pancreatic cell line); experiment: KRAS 3D-Cell Proliferation Assay, HPAC (Example 503); assay type: cell-based; conditions: Homo sapiens, HPAC, 168 h, HPAC 3D culture, 7 days, CellTiter-Glo 3D; read-out: Prolif HPAC 3D ATP IC50
Experimental: (§1) Example 503: KRAS 3D-Cell Proliferation Assays. Cellular potencies of compounds are assessed by evaluating inhibition of proliferation in 3D cultures of homozygous mutant KRAS G12D human pancreatic cell lines (AsPC-1 and HPAC) as compared to a KRAS wild type human lung adenocarcinoma cell line (PC-9 and/or H1975). Cells are seeded into 384-well black round-bottom, ultra-low attachment assay plates in 50 uL cell growth medium (RPMI-1640 with 10% fetal bovine serum and 2 mM L-glutamine). After overnight incubation at 37° C. and 5% CO2, compounds solubilized in DMSO are added as dilution series to the wells in a total volume of 150 nL (0.3% DMSO final). The cells are incubated for 7 days at 37° C. and 5% CO2. Cell proliferation is quantitated by addition of 40 uL/well of CellTiter-GloÒ 3D (Promega), and the well contents are mixed 20× at high speed using liquid handling automation workstation (Bravo with 384-well head) and centrifuged at 1500 rpm for 2 minutes to eliminate bubbles. This reagent in combination with mechanical disruption releases the cellular ATP to promote activity in a luciferase-based enzyme/substrate chemiluminescent detection system. After a 30-minute incubation under ambient conditions with shaking and an additional 10 minutes without shaking, the luminescence is read on a plate reader (e.g., EnVision [PerkinElmer]). The results are normalized to percent inhibition based on the following control samples: DMSO (0% inhibition) and 1 μM staurosporine (100% inhibition). The normalized luminescence results are plotted against compound concentration, and the data are fit to a 4-parameter Hill equation to determine the IC50 values.

[2] = tested on: H1975 (KRAS wild type human lung adenocarcinoma cell line); experiment: KRAS 3D-Cell Proliferation Assay, H1975 (Example 503); assay type: cell-based; conditions: Homo sapiens, NCI-H1975, 168 h, H1975 3D culture, 7 days, CellTiter-Glo 3D; read-out: Prolif H1975 3D ATP IC50
Experimental: as §1

SMILES | IC50 [1] [nM] | IC50 [2] [nM]
Cc1cc(N)c(F)c(-c2nc3c4c(nc(OC[C@@H]5CC[C@H]6COCCN65)nc4c2F)N2C[C@H]4CC[C@H](N4)[C@H]2[C@H](C)O3)c1C1CC1 [Compound 98, 4-Cyclopropyl-2-fluoro-3-((5S,5aS,6S,9R)-1-fluoro-12-(((6S,8aS)-hexahydro-1H-pyrrolo[2,1-c][1,4]oxazin-6-yl)methoxy)-5-methyl-5a,6,7,8,9,10-hexahydro-5H-4-oxa-3,10a,11,13,14-pentaaza-6,9-methanonaphtho[1,8-ab]heptalen-2-yl)-5-methylaniline] | 26.2 | 2750
Cc1cc(N)c(F)c(-c2nc3c4c(nc(OC[C@@H]5CC[C@H]6COCCN65)nc4c2F)N2C[C@H]4CC[C@H](N4)[C@H]2[C@H](C)O3)c1C=C(F)F [Compound 99, 4-(2,2-Difluorovinyl)-2-fluoro-3-((5S,5aS,6S,9R)-1-fluoro-12-(((6S,8aS)-hexahydro-1H-pyrrolo[2,1-c][1,4]oxazin-6-yl)methoxy)-5-methyl-5a,6,7,8,9,10-hexahydro-5H-4-oxa-3,10a,11,13,14-pentaaza-6,9-methanonaphtho[1,8-ab]heptalen-2-yl)-5-methylaniline] | 40 | 5060
Cc1cc(N)c(F)c(-c2nc3c4c(nc(OC[C@@H]5CC[C@H]6COCCN65)nc4c2F)N2C[C@H]4CC[C@H](N4)[C@H]2[C@H](C)O3)c1C(F)(F)C(F)(F)F [Compound 100, 2-Fluoro-3-((5S,5aS,6S,9R)-1-fluoro-12-(((6S,8aS)-hexahydro-1H-pyrrolo[2,1-c][1,4]oxazin-6-yl)methoxy)-5-methyl-5a,6,7,8,9,10-hexahydro-5H-4-oxa-3,10a,11,13,14-pentaaza-6,9-methanonaphtho[1,8-ab]heptalen-2-yl)-5-methyl-4-(perfluoroethyl)aniline] | 21.8 | 3970
Cc1cc(N)c(F)c(-c2nc3c4c(nc(OC[C@@H]5CC[C@H]6COCCN65)nc4c2F)N2C[C@H]4CC[C@H](N4)[C@H]2[C@H](C)O3)c1Cl [Compound 101, 4-Chloro-2-fluoro-3-((5S,5aS,6S,9R)-1-fluoro-12-(((6S,8aS)-hexahydro-1H-pyrrolo[2,1-c][1,4]oxazin-6-yl)methoxy)-5-methyl-5a,6,7,8,9,10-hexahydro-5H-4-oxa-3,10a,11,13,14-pentaaza-6,9-methanonaphtho[1,8-ab]heptalen-2-yl)-5-methylaniline] | 41.5 | 8490
Cc1cc(N)c(Cl)c(-c2nc3c4c(nc(OC[C@@H]5CC[C@H]6COCCN65)nc4c2F)N2C[C@H]4CC[C@H](N4)[C@H]2[C@H](C)O3)c1C(F)(F)F [Compound 103, 2-Chloro-3-((5S,5aS,6S,9R)-1-fluoro-12-(((6S,8aS)-hexahydro-1H-pyrrolo[2,1-c][1,4]oxazin-6-yl)methoxy)-5-methyl-5a,6,7,8,9,10-hexahydro-5H-4-oxa-3,10a,11,13,14-pentaaza-6,9-methanonaphtho[1,8-ab]heptalen-2-yl)-5-methyl-4-(trifluoromethyl)aniline] | 9.29 | 3460
C[C@@H]1Oc2nc(-c3[nH]c(=O)cc4ccccc34)c(F)c3nc(OC[C@@]45CCCN4C[C@H](F)C5)nc(c23)N2C[C@H]3CC[C@H](N3)[C@@H]12 [Compound 105, 1-((5S,5aS,6S,9R)-1-Fluoro-12-(((2R,7aS)-2-fluorotetrahydro-1H-pyrrolizin-7a(5H)-yl)methoxy)-5-methyl-5a,6,7,8,9,10-hexahydro-5H-4-oxa-3,10a,11,13,14-pentaaza-6,9-methanonaphtho[1,8-ab]heptalen-2-yl)isoquinolin-3(2H)-one] | 2000 | 20000

Source: patent US12338256B2, “Aza-tetracyclic oxazepine compounds and uses thereof” (Genentech, Inc., priority 2022, dated 2025)
